In patent US11834451B2 (priority 2021, dated 2023):
Like-named read-outs stand apart in the source and are kept apart here.

How the values were obtained:
EV-D68 = experiment: microbe, parasite or virus in culture; assay type: cell-based, enterovirus D68 (EV-D68); conditions: Enterovirus D, EVD68, RD
EV-A71 = experiment: microbe, parasite or virus in culture; assay type: cell-based, enterovirus A71 (EV-A71); conditions: Enterovirus A, EVA71, RD
EV-D68, EV-A71, and CVB3 = experiment: organism not typed; assay type: cell-based
CVB3 Nancy virus = experiment: microbe, parasite or virus in culture; assay type: cell-based, coxsackievirus B3 (CVB3); conditions: Enterovirus B, CVB3, Vero, read-out: EC50, Anti-CVB3 in Vero cells
in vitro = conditions: human
Vero cells = conditions: African green monkey
RD cells = conditions: human
[1] = read-out: EC50, Anti-EV-D68 US/KY/14-18953 in RD cells
[2] = read-out: EC50, Anti-EV-A71 Tainan/4643/1998 in RD cells
[3] = CC50, in RD cells (Anti-EV-A71)

| SMILES | EC50 (EV-D68; [1]) [nM] | EC50 (EV-A71; [2]) [nM] | EC50 (CVB3 Nancy virus) [nM] | CC50 (in vitro; [3]) [nM] | also measured |
| --- | --- | --- | --- | --- | --- |
| CCCn1ncc2c(C(=O)NCCN(C)C)cc(C)nc21 [Compound 14, N-[2-(dimethylamino)ethyl]-6-methyl-1-propyl-1H-pyrazolo[3,4-b]pyridine-4-carboxamide] | 48400 |  |  |  |  |
| CCN(CC)CCNC(=O)c1cc(C2CC2)nc2c1cnn2C(C)C [Compound 7c, 6-cyclopropyl-N-[2-(diethylamino)ethyl]-1-(propan-2-yl)-1H-pyrazolo[3,4-b]pyridine-4-carboxamide] | 400 | 300 | 500 |  | EC50 values in words (summary across viruses) (EV-D68, EV-A71, and CVB3): submicromolar |
| CNCCCNC(=O)c1cc(C2CC2)nc2c1cnn2C(C)C [Compound 7m, 6-cyclopropyl-N-[3-(methylamino)propyl]-1-(propan-2-yl)-1H-pyrazolo[3,4-b]pyridine-4-carboxamide] | 1700 | 5300 | 1600 | 183000 |  |
| Cc1cc(C(=O)NCCN(C)C)c2cnn(C3CCCC3)c2n1 [Compound 13, 1-cyclopentyl-N-[2-(dimethylamino)ethyl]-6-methyl-1H-pyrazolo[3,4-b]pyridine-4-carboxamide] | 11100 |  |  |  |  |
| CC(C)n1ncc2c(C(=O)NCCN(C)C)cc(C(C)(C)C)nc21 [Compound 11a, 6-tert-butyl-N-[2-(dimethylamino)ethyl]-1-(propan-2-yl)-1H-pyrazolo[3,4-b]pyridine-4-carboxamide] | 100 | 40 | 100 | 31400 |  |
| CC(C)n1ncc2c(C(=O)NCCCN(C)C)cc(C3CC3)nc21 [Compound 7l, 6-cyclopropyl-N-[3-(dimethylamino)propyl]-1-(propan-2-yl)-1H-pyrazolo[3,4-b]pyridine-4-carboxamide] | 1200 | 1800 | 400 |  | CC50 (Vero cells): > 200000 nM |
| CCCn1ncc2c(C(=O)NCCN(C)C)cc(C3CC3)nc21 [Compound 20, 6-cyclopropyl-N-[2-(dimethylamino)ethyl]-1-propyl-1H-pyrazolo[3,4-b]pyridine-4-carboxamide] | 1200 | 2000 | 2000 | 57700 | EC50 values in words (summary across viruses) (EV-D68, EV-A71, and CVB3): low single-digit or submicromolar |
| CCC(C)n1ncc2c(C(=O)NCCN(C)C)cc(C3CC3)nc21 (stereo not drawn) [Compound 21, 1-(butan-2-yl)-6-cyclopropyl-N-[2-(dimethylamino)ethyl]-1H-pyrazolo[3,4-b]pyridine-4-carboxamide] | 200 | 100 | 100 |  | EC50 values in words (summary across viruses) (EV-D68, EV-A71, and CVB3): low single-digit or submicromolar |
| CC(CN)NC(=O)c1cc(C(C)C)nc2c1cnn2C(C)C (stereo not drawn) [Compound 10f, N-(1-aminopropan-2-yl)-1,6-bis(propan-2-yl)-1H-pyrazolo[3,4-b]pyridine-4-carboxamide] | 400 | 500 | 600 | 118000 |  |
| CC(C)c1cc(C(=O)NCCO)c2cnn(C(C)C)c2n1 [Compound 10b, N-(2-hydroxyethyl)-1,6-bis(propan-2-yl)-1H-pyrazolo[3,4-b]pyridine-4-carboxamide] |  |  |  |  | CC50 (RD cells): > 100000 nM |
| CCn1ncc2c(C(=O)NCCN(C)C)cc(C3CC3)nc21 [Compound 16, 6-cyclopropyl-N-[2-(dimethylamino)ethyl]-1-ethyl-1H-pyrazolo[3,4-b]pyridine-4-carboxamide] | 1700 | 1200 | 1800 |  | CC50 (Vero cells): > 300000 nM; EC50 values in words (summary across viruses) (EV-D68, EV-A71, and CVB3): single-digit micromolar range |
| Cc1cc(C(=O)NCCN(C)C)c2cnn(C(C)C)c2n1 [Compound 12a, N-[2-(dimethylamino)ethyl]-6-methyl-1-(propan-2-yl)-1H-pyrazolo[3,4-b]pyridine-4-carboxamide] | 400 | 100 | 200 |  | CC50 (Vero cells): > 300000 nM |
| CC(CN)NC(=O)c1cc(C2CC2)nc2c1cnn2C(C)C (stereo not drawn) [Compound 7j, N-(1-aminopropan-2-yl)-6-cyclopropyl-1-(propan-2-yl)-1H-pyrazolo[3,4-b]pyridine-4-carboxamide] | 300 | 600 | 300 |  |  |
| CC(C)n1ncc2c(C(=O)NC3CCN(C)C3)cc(C3CC3)nc21 (stereo not drawn) [Compound 7g, 6-cyclopropyl-N-(1-methylpyrrolidin-3-yl)-1-(propan-2-yl)-1H-pyrazolo[3,4-b]pyridine-4-carboxamide] | 100 | 100 | 100 | 20700 | CC50 (in vitro; CC50, in RD cells (Anti-EV-D68)): 20700 nM; EC50 (EV-D68, EV-A71, and CVB3; read-out: EC50 (text summary, virus not singled out)): 100 nM |
| Cc1cc(C(=O)NCCN(C)C)c2c(C)nn(C(C)(C)C)c2n1 [Compound 19, 1-tert-butyl-N-[2-(dimethylamino)ethyl]-3,6-dimethyl-1H-pyrazolo[3,4-b]pyridine-4-carboxamide] | 1000 | 7400 | 2100 |  | CC50 (in vitro; CC50 (EV-A71 A71 MP4 row group)): 236000 nM; CC50 (in vitro; CC50 (EV-A71 Tainan/4643/1998)): 236000 nM; CC50 (in vitro; CC50 (EV-A71 USA/CT/2016-19519)): 236000 nM; EC50 (EV-A71; read-out: EC50, EV-A71 A71 MP4): 2000 nM; EC50 (EV-A71; read-out: EC50, EV-A71 Tainan/4643/1998): 7400 nM; EC50 (EV-A71; read-out: EC50, EV-A71 USA/CT/2016-19519): 1300 nM; selectivity index across EV-D68 and EV-A71 strains tested (EV-D68, EV-A71, and CVB3): > 100; EC50 (EV-D68, EV-A71, and CVB3; RD, read-out: EC50 values range against all EV-D68 and EV-A71 strains tested): 400 to 7400 nM; EC50 (EV-D68; read-out: EC50, EV-D68 US/IL/14-18952 (Clade B2)): 700 nM; EC50 (EV-D68; read-out: EC50, EV-D68 US/IL/14-18956 (Clade B2)): 400 nM; EC50 (EV-D68; read-out: EC50, EV-D68 US/KY/14-18953 (Clade D)): 1000 nM; EC50 (EV-D68; read-out: EC50, EV-D68 US/MO/14-18947 (Clade B1)): 400 nM; EC50 (EV-D68; read-out: EC50, EV-D68 US/MO/14-18949 (Clade B1)): 700 nM |
| CC(C)n1ncc2c(C(=O)NCCN3CCCC3)cc(C3CC3)nc21 [Compound 7b, 6-cyclopropyl-1-(propan-2-yl)-N-[2-(pyrrolidin-1-yl)ethyl]-1H-pyrazolo[3,4-b]pyridine-4-carboxamide] | 100 | 200 | 200 | 46500 |  |
| CC(C)n1ncc2c(C(=O)NCCN)cc(C(C)(C)C)nc21 [Compound 11b, N-(2-aminoethyl)-6-tert-butyl-1-(propan-2-yl)-1H-pyrazolo[3,4-b]pyridine-4-carboxamide] | 100 | 200 | 100 | 24600 |  |
| Cc1nn(C(C)(C)C)c2nc(C3CC3)cc(C(=O)NCCN(C)C)c12 [Compound 18a, 1-tert-butyl-6-cyclopropyl-N-[2-(dimethylamino)ethyl]-3-methyl-1H-pyrazolo[3,4-b]pyridine-4-carboxamide] | 800 | 3500 | 1800 | 45200 |  |
| CC(C)c1cc(C(=O)NCCN)c2cnn(C(C)C)c2n1 [Compound 10e, N-(2-aminoethyl)-1,6-bis(propan-2-yl)-1H-pyrazolo[3,4-b]pyridine-4-carboxamide] | 600 | 600 | 900 | 170000 |  |
| CC(CN(C)C)NC(=O)c1cc(C2CC2)nc2c1cnn2C(C)C (stereo not drawn) [Compound 7f, 6-cyclopropyl-N-[1-(dimethylamino)propan-2-yl]-1-(propan-2-yl)-1H-pyrazolo[3,4-b]pyridine-4-carboxamide] | 100 | 100 | 40 | 72600 | CC50 (Vero cells): > 300000 nM |
| CC(C)n1ncc2c(C(=O)NC3CNC3)cc(C3CC3)nc21 [Compound 7e, N-(azetidin-3-yl)-6-cyclopropyl-1-(propan-2-yl)-1H-pyrazolo[3,4-b]pyridine-4-carboxamide] | 1400 |  |  |  |  |
| CNCCNC(=O)c1cc(C2CC2)nc2c1c(C)nn2C(C)(C)C [Compound 18b, 1-tert-butyl-6-cyclopropyl-3-methyl-N-[2-(methylamino)ethyl]-1H-pyrazolo[3,4-b]pyridine-4-carboxamide] | 1100 | 8400 | 2900 |  |  |
| COCCNC(=O)c1cc(C2CC2)nc2c1cnn2C(C)C [Compound 7a, 6-cyclopropyl-N-(2-methoxyethyl)-1-(propan-2-yl)-1H-pyrazolo[3,4-b]pyridine-4-carboxamide] |  |  |  | 178000 |  |
| CC(C)n1ncc2c(C(=O)NCCN)cc(C3CC3)nc21 [Compound 7i, N-(2-aminoethyl)-6-cyclopropyl-1-(propan-2-yl)-1H-pyrazolo[3,4-b]pyridine-4-carboxamide] | 400 | 400 | 900 |  |  |
| CCN(CC)CCCNC(=O)c1cc(C2CC2)nc2c1cnn2C(C)C [Compound 7k, 6-cyclopropyl-N-[3-(diethylamino)propyl]-1-(propan-2-yl)-1H-pyrazolo[3,4-b]pyridine-4-carboxamide] | 1900 | 6100 | 1700 |  |  |
| CC(C1CC1)n1ncc2c(C(=O)NCCN(C)C)cc(C3CC3)nc21 (stereo not drawn) [Compound 22, 6-cyclopropyl-1-(1-cyclopropylethyl)-N-[2-(dimethylamino)ethyl]-1H-pyrazolo[3,4-b]pyridine-4-carboxamide] | 700 | 200 | 1900 |  | EC50 values in words (summary across viruses) (EV-D68, EV-A71, and CVB3): low single-digit or submicromolar |
